The CheMixHub viscosity set
Where “and” joins values, the source holds several entries; their conditions need not be identical. Identical values can stand only once.

Test: xn = mol fraction of the nth substance listed

CC(C)O + O
Details | viscosity
293.15 K, 100 kPa, x1 = 0.2 | 3.802 mPa·s and 3.645 mPa·s
293.15 K, 100 kPa, x1 = 0.3 | 3.735 mPa·s
293.15 K, 101 kPa, x1 = 0.01 | 1.17 mPa·s
293.15 K, 101 kPa, x1 = 0.02 | 1.369 mPa·s
293.15 K, 101 kPa, x1 = 0.032 | 1.67 mPa·s
293.15 K, 101 kPa, x1 = 0.05 | 2.062 mPa·s
293.15 K, 101 kPa, x1 = 0.07069 | 2.544 mPa·s
293.15 K, 101 kPa, x1 = 0.1 | 3.054 mPa·s
293.15 K, 101 kPa, x1 = 0.11 | 3.26 mPa·s
293.15 K, 101 kPa, x1 = 0.2 | 3.741 mPa·s
293.15 K, 101 kPa, x1 = 0.23 | 3.875 mPa·s
293.15 K, 101 kPa, x1 = 0.41 | 3.493 mPa·s
298.15 K, 101 kPa, x1 = 0.01 | 1.029 mPa·s
298.15 K, 101 kPa, x1 = 0.02 | 1.188 mPa·s
298.15 K, 101 kPa, x1 = 0.032 | 1.416 mPa·s
298.15 K, 101 kPa, x1 = 0.07069 | 2.089 mPa·s
298.15 K, 101 kPa, x1 = 0.1 | 2.472 mPa·s
298.15 K, 101 kPa, x1 = 0.11 | 2.601 mPa·s
298.15 K, 101 kPa, x1 = 0.23 | 3.141 mPa·s
298.15 K, 101 kPa, x1 = 0.41 | 2.912 mPa·s
298.15 K, 101 kPa, x2 = 0.26 | 2.142 mPa·s
298.15 K, 101 kPa, x2 = 0.4678 | 2.527 mPa·s
298.15 K, 101 kPa, x2 = 0.6079 | 2.87 mPa·s
298.15 K, 101 kPa, x2 = 0.685 | 3.03 mPa·s
298.15 K, 101 kPa, x2 = 0.7249 | 3.054 mPa·s
298.15 K, 101 kPa, x2 = 0.805 | 2.978 mPa·s
298.15 K, 101 kPa, x2 = 0.89 | 2.431 mPa·s
298.15 K, 101 kPa, x2 = 0.9549 | 1.655 mPa·s
298.15 K, 101.33 kPa, x1 = 0.015 | 1.112 mPa·s
298.15 K, 101.33 kPa, x1 = 0.05 | 1.747 mPa·s
298.15 K, 101.33 kPa, x1 = 0.075 | 2.181 mPa·s
298.15 K, 101.33 kPa, x1 = 0.15 | 2.883 mPa·s
298.15 K, 101.33 kPa, x1 = 0.2 | 3.008 mPa·s
298.15 K, 101.33 kPa, x1 = 0.25 | 3.057 mPa·s
298.15 K, 101.33 kPa, x1 = 0.3 | 3.026 mPa·s
298.15 K, 101.33 kPa, x1 = 0.4 | 2.855 mPa·s
298.15 K, 101.33 kPa, x1 = 0.5 | 2.631 mPa·s
298.15 K, 101.33 kPa, x1 = 0.6 | 2.411 mPa·s
298.15 K, 101.33 kPa, x1 = 0.7 | 2.23 mPa·s
298.15 K, 101.33 kPa, x1 = 0.8 | 2.098 mPa·s
298.15 K, 101.33 kPa, x1 = 0.9 | 2.03 mPa·s
298.15 K, 101.33 kPa, x1 = 0.925 | 2.026 mPa·s
298.15 K, 101.33 kPa, x1 = 0.95 | 2.031 mPa·s
303.15 K, 100 kPa, x2 = 0.1 | 1.77 mPa·s
303.15 K, 100 kPa, x2 = 0.2 | 1.83 mPa·s
303.15 K, 100 kPa, x2 = 0.3 | 1.95 mPa·s
303.15 K, 100 kPa, x2 = 0.4 | 2.1 mPa·s
303.15 K, 100 kPa, x2 = 0.5 | 2.25 mPa·s
303.15 K, 100 kPa, x2 = 0.6 | 2.42 mPa·s
303.15 K, 100 kPa, x2 = 0.7 | 2.54 mPa·s
303.15 K, 100 kPa, x2 = 0.8 | 2.47 mPa·s
303.15 K, 100 kPa, x2 = 0.9 | 1.95 mPa·s
303.15 K, 101 kPa, x1 = 0.01 | 0.912 mPa·s
303.15 K, 101 kPa, x1 = 0.02 | 1.04 mPa·s
303.15 K, 101 kPa, x1 = 0.05 | 1.467 mPa·s
303.15 K, 101 kPa, x1 = 0.07069 | 1.735 mPa·s
303.15 K, 101 kPa, x1 = 0.1 | 2.041 mPa·s
303.15 K, 101 kPa, x1 = 0.2 | 2.504 mPa·s
303.15 K, 101 kPa, x1 = 0.23 | 2.573 mPa·s
303.15 K, 101 kPa, x1 = 0.41 | 2.434 mPa·s
303.15 K, 101 kPa, x2 = 0.1049 | 1.789 mPa·s
303.15 K, 101 kPa, x2 = 0.26 | 1.863 mPa·s
303.15 K, 101 kPa, x2 = 0.4678 | 2.158 mPa·s
303.15 K, 101 kPa, x2 = 0.6079 | 2.439 mPa·s
303.15 K, 101 kPa, x2 = 0.685 | 2.55 mPa·s
303.15 K, 101 kPa, x2 = 0.7249 | 2.557 mPa·s
303.15 K, 101 kPa, x2 = 0.805 | 2.451 mPa·s
303.15 K, 101 kPa, x2 = 0.89 | 2.007 mPa·s
303.15 K, 101 kPa, x2 = 0.9549 | 1.419 mPa·s
308.15 K, 101 kPa, x1 = 0.01 | 0.815 mPa·s
308.15 K, 101 kPa, x1 = 0.02 | 0.923 mPa·s
308.15 K, 101 kPa, x1 = 0.032 | 1.056 mPa·s
308.15 K, 101 kPa, x1 = 0.05 | 1.263 mPa·s
308.15 K, 101 kPa, x1 = 0.07069 | 1.48 mPa·s
308.15 K, 101 kPa, x1 = 0.1 | 1.717 mPa·s
308.15 K, 101 kPa, x1 = 0.11 | 1.749 mPa·s
308.15 K, 101 kPa, x1 = 0.2 | 2.109 mPa·s
308.15 K, 101 kPa, x1 = 0.23 | 2.142 mPa·s
308.15 K, 101 kPa, x1 = 0.41 | 2.044 mPa·s
308.15 K, 101 kPa, x2 = 0.1049 | 1.56 mPa·s
308.15 K, 101 kPa, x2 = 0.26 | 1.616 mPa·s
308.15 K, 101 kPa, x2 = 0.4678 | 1.856 mPa·s
308.15 K, 101 kPa, x2 = 0.6079 | 2.072 mPa·s
308.15 K, 101 kPa, x2 = 0.685 | 2.169 mPa·s
308.15 K, 101 kPa, x2 = 0.7249 | 2.178 mPa·s
308.15 K, 101 kPa, x2 = 0.805 | 2.088 mPa·s
308.15 K, 101 kPa, x2 = 0.89 | 1.675 mPa·s
308.15 K, 101 kPa, x2 = 0.9549 | 1.23 mPa·s
313.15 K, 101 kPa, x1 = 0.01 | 0.733 mPa·s
313.15 K, 101 kPa, x1 = 0.02 | 0.823 mPa·s
313.15 K, 101 kPa, x1 = 0.032 | 0.933 mPa·s
313.15 K, 101 kPa, x1 = 0.05 | 1.098 mPa·s
313.15 K, 101 kPa, x1 = 0.07069 | 1.27 mPa·s
313.15 K, 101 kPa, x1 = 0.1 | 1.458 mPa·s
313.15 K, 101 kPa, x1 = 0.11 | 1.495 mPa·s
313.15 K, 101 kPa, x1 = 0.2 | 1.789 mPa·s
313.15 K, 101 kPa, x1 = 0.23 | 1.821 mPa·s
313.15 K, 101 kPa, x1 = 0.41 | 1.731 mPa·s
313.15 K, 101 kPa, x2 = 0.1049 | 1.365 mPa·s
313.15 K, 101 kPa, x2 = 0.26 | 1.412 mPa·s
313.15 K, 101 kPa, x2 = 0.4678 | 1.604 mPa·s
313.15 K, 101 kPa, x2 = 0.6079 | 1.788 mPa·s
313.15 K, 101 kPa, x2 = 0.685 | 1.855 mPa·s
313.15 K, 101 kPa, x2 = 0.7249 | 1.858 mPa·s
313.15 K, 101 kPa, x2 = 0.805 | 1.781 mPa·s
313.15 K, 101 kPa, x2 = 0.89 | 1.447 mPa·s
313.15 K, 101 kPa, x2 = 0.9549 | 1.076 mPa·s
313.15 K, 101.33 kPa, x1 = 0.015 | 0.7848 mPa·s
313.15 K, 101.33 kPa, x1 = 0.05 | 1.113 mPa·s
313.15 K, 101.33 kPa, x1 = 0.075 | 1.292 mPa·s
313.15 K, 101.33 kPa, x1 = 0.1 | 1.453 mPa·s
313.15 K, 101.33 kPa, x1 = 0.15 | 1.665 mPa·s
313.15 K, 101.33 kPa, x1 = 0.2 | 1.777 mPa·s
313.15 K, 101.33 kPa, x1 = 0.25 | 1.823 mPa·s
313.15 K, 101.33 kPa, x1 = 0.3 | 1.822 mPa·s
313.15 K, 101.33 kPa, x1 = 0.4 | 1.756 mPa·s
313.15 K, 101.33 kPa, x1 = 0.5 | 1.649 mPa·s
313.15 K, 101.33 kPa, x1 = 0.6 | 1.539 mPa·s
313.15 K, 101.33 kPa, x1 = 0.7 | 1.446 mPa·s
313.15 K, 101.33 kPa, x1 = 0.8 | 1.375 mPa·s
313.15 K, 101.33 kPa, x1 = 0.85 | 1.35 mPa·s
313.15 K, 101.33 kPa, x1 = 0.9 | 1.327 mPa·s
313.15 K, 101.33 kPa, x1 = 0.925 | 1.331 mPa·s
313.15 K, 101.33 kPa, x1 = 0.95 | 1.332 mPa·s
313.15 K, 101.33 kPa, x1 = 0.975 | 1.336 mPa·s
318.15 K, 101 kPa, x1 = 0.01 | 0.664 mPa·s
318.15 K, 101 kPa, x1 = 0.02 | 0.739 mPa·s
318.15 K, 101 kPa, x1 = 0.032 | 0.836 mPa·s
318.15 K, 101 kPa, x1 = 0.05 | 0.966 mPa·s
318.15 K, 101 kPa, x1 = 0.07069 | 1.103 mPa·s
318.15 K, 101 kPa, x1 = 0.1 | 1.261 mPa·s
318.15 K, 101 kPa, x1 = 0.11 | 1.315 mPa·s
318.15 K, 101 kPa, x1 = 0.2 | 1.539 mPa·s
318.15 K, 101 kPa, x1 = 0.23 | 1.579 mPa·s
318.15 K, 101 kPa, x1 = 0.41 | 1.484 mPa·s
318.15 K, 101 kPa, x2 = 0.1049 | 1.182 mPa·s
318.15 K, 101 kPa, x2 = 0.26 | 1.237 mPa·s
318.15 K, 101 kPa, x2 = 0.4678 | 1.397 mPa·s
318.15 K, 101 kPa, x2 = 0.6079 | 1.561 mPa·s
318.15 K, 101 kPa, x2 = 0.685 | 1.604 mPa·s
318.15 K, 101 kPa, x2 = 0.7249 | 1.598 mPa·s
318.15 K, 101 kPa, x2 = 0.805 | 1.539 mPa·s
318.15 K, 101 kPa, x2 = 0.89 | 1.255 mPa·s
318.15 K, 101 kPa, x2 = 0.9549 | 0.95 mPa·s
323.15 K, 100 kPa, x1 = 0.2 | 1.375 mPa·s and 1.3 mPa·s
323.15 K, 100 kPa, x1 = 0.3 | 1.387 mPa·s
323.15 K, 100 kPa, x2 = 0.1 | 1.03 mPa·s
323.15 K, 100 kPa, x2 = 0.2 | 1.08 mPa·s
323.15 K, 100 kPa, x2 = 0.3 | 1.11 mPa·s
323.15 K, 100 kPa, x2 = 0.4 | 1.21 mPa·s
323.15 K, 100 kPa, x2 = 0.5 | 1.26 mPa·s
323.15 K, 100 kPa, x2 = 0.6 | 1.37 mPa·s
323.15 K, 100 kPa, x2 = 0.7 | 1.37 mPa·s
323.15 K, 100 kPa, x2 = 0.8 | 1.37 mPa·s
323.15 K, 100 kPa, x2 = 0.9 | 1.14 mPa·s
323.15 K, 101 kPa, x1 = 0.01 | 0.604 mPa·s
323.15 K, 101 kPa, x1 = 0.02 | 0.668 mPa·s
323.15 K, 101 kPa, x1 = 0.05 | 0.856 mPa·s
323.15 K, 101 kPa, x1 = 0.07069 | 0.969 mPa·s
323.15 K, 101 kPa, x1 = 0.1 | 1.101 mPa·s
